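Five compound concentrations were applied to cells in 96-well plates for 48 hours; endpoints were derived by simple linear interpolation of the resulting dose-response curve. At the GI50, growth is halved.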 Activity calls are given as the source filed them. Rule as the data show it: active = GI50 up to about 1.1 µM and inactive = higher. Where a SMILES comes first, the peptide text is derived from it. The star is where a group is joined. Cbz = O=C(OCc1ccccc1)*; Bn = c1ccc(C*)cc1

Some test systems named below: HCT-116; HCT-15; IGROV-1; K562; LXFL 529; M14; NCI-H460; NCI-H522; OVCAR-3; OVCAR-5; SF-295; SK-MEL-28; SNB-75; UACC-257; UO-31; NCI-H226; MCF7; MDA-MB-435; MDA-N; RPMI-8226.
What all share (assay): NCI tumour cell line growth inhibition, 48 h

Turning to `CCCCCCCCCC/C=C/C=O`, the GI50 in the assay with HCT-116 was > 100 µM (inactive); with HCT-15 it was over 100 µM; in the assay with IGROV-1, > 100 µM (inactive); with K562 it was > 100 µM (inactive); in the assay with LXFL 529 it was > 100 µM (inactive); in the assay with M14, > 100 µM (inactive). Besides, the GI50 in the assay with NCI-H460, in the assay on NCI-H522, in the assay on OVCAR-3, in the assay on OVCAR-5, with SF-295 and in the assay on SK-MEL-28 was > 100 µM (inactive) throughout. For the same compound, the GI50 in the assay with SNB-75, in the assay on UACC-257 and in the assay with UO-31 was > 100 µM (inactive) throughout.

In the case of `OCc1ccccc1C1CSCSC1`, the GI50 in the assay on HCT-116 is > 100 µM (inactive); in the assay on HCT-15, over 100 µM; in the assay on K562 it was > 100 µM (inactive); in the assay on LXFL 529, > 100 µM (inactive); in the assay with NCI-H226 it was > 100 µM (inactive); with NCI-H460, > 100 µM (inactive). The GI50 in the assay with NCI-H522, in the assay on OVCAR-3, with SF-295, with SK-MEL-28, in the assay with SNB-75 and with UACC-257 was > 100 µM (inactive) throughout. For the same compound, in the assay on UO-31, the GI50 was > 100 µM (inactive).

Turning to `C=CCOCC1C2CCC3(OCCO3)C21` (stereo not drawn), the GI50 in the assay with HCT-116 was > 100 µM (inactive); in the assay on HCT-15, over 100 µM; in the assay on IGROV-1, > 100 µM (inactive); with K562, 46.9 µM (inactive); in the assay on M14 it was > 100 µM (inactive); with MCF7, > 100 µM (inactive). Besides, the GI50 in the assay with MDA-MB-435, in the assay on MDA-N, with NCI-H226, in the assay on NCI-H460, in the assay with NCI-H522 and with OVCAR-3 was > 100 µM (inactive) in each case. Moreover, the GI50 in the assay on OVCAR-5, in the assay on RPMI-8226, in the assay with SF-295, in the assay on SK-MEL-28, in the assay on SNB-75 and with UACC-257 was > 100 µM (inactive) in each case. In addition, in the assay on UO-31, the GI50 was 19.1 µM (inactive).

`C1CCC(OCc2nnn3c2CCC3)OC1` (stereo not drawn): the GI50 was > 100 µM (inactive) in the assay with HCT-116; over 100 µM in the assay with HCT-15; > 100 µM (inactive) in the assay on IGROV-1; > 100 µM (inactive) with K562; > 100 µM (inactive) in the assay with LXFL 529; > 100 µM (inactive) with M14. For the same compound, the GI50 with NCI-H460, in the assay with NCI-H522, in the assay with OVCAR-3, with OVCAR-5, in the assay with SF-295 and with SK-MEL-28 was > 100 µM (inactive) in each case. Besides, the GI50 with SNB-75, with UACC-257 and with UO-31 was > 100 µM (inactive) throughout.

As to `Cc1ccc(C2NC(=O)c3ccccc3N2)s1` (stereo not drawn), the GI50 in the assay with HCT-116 is 6.31 µM (inactive); with HCT-15, 4.09 µM; with IGROV-1, 6.67 µM (inactive); with K562, 3.2 µM (inactive); with LXFL 529, 7.64 µM (inactive); with M14, 8.05 µM (inactive). In addition, the GI50 in the assay with NCI-H460 was 4.25 µM (inactive); in the assay on NCI-H522, 4.26 µM (inactive); in the assay with OVCAR-3 it was 3.8 µM (inactive); in the assay with OVCAR-5, 10 µM (inactive); in the assay on RPMI-8226, 4.69 µM (inactive); in the assay with SF-295, 2.37 µM (inactive). In addition, the GI50 is 5.81 µM (inactive) in the assay with SK-MEL-28, 2.32 µM (inactive) in the assay with UACC-257 and 7.38 µM (inactive) with UO-31.

Regarding `COc1ccc2c(c1)CCC(CN1CCN(CCOC(c3ccccc3)c3ccccc3)CC1)C2O` (stereo not drawn), the GI50 in the assay on HCT-116 is 12.2 µM (inactive); with HCT-15, 10.8 µM; in the assay with IGROV-1, 15.4 µM (inactive); in the assay with K562 it was 6.58 µM (inactive); in the assay on M14, 14.2 µM (inactive); with MCF7 it was 18.9 µM (inactive). The GI50 with MDA-MB-435 is 16.6 µM (inactive); with MDA-N it was 14.3 µM (inactive); in the assay with NCI-H226 it was 16.3 µM (inactive); with NCI-H460 it was 16.7 µM (inactive); with NCI-H522 it was 16.6 µM (inactive); in the assay with OVCAR-3, 15.3 µM (inactive). Further, the GI50 is 16.6 µM (inactive) in the assay on OVCAR-5; 11 µM (inactive) with RPMI-8226; 18.9 µM (inactive) in the assay on SF-295; 16.5 µM (inactive) with SK-MEL-28; 17.9 µM (inactive) with SNB-75; 13 µM (inactive) in the assay on UACC-257. In addition, in the assay on UO-31, the GI50 is 15.4 µM (inactive).

Take `COC(=O)C(Cc1ccc(O)cc1)NC(=O)C(COCc1ccccc1)NC(=O)OCc1ccccc1` (stereo not drawn) (Cbz-Ser(Bn)-Tyr-OMe; configuration not given here): the GI50 with HCT-116 was 20.9 µM (inactive); with HCT-15, 18.8 µM; in the assay on IGROV-1, 17.6 µM (inactive); in the assay on K562, > 100 µM (inactive); with M14 it was 19.4 µM (inactive); in the assay on MCF7 it was 19.3 µM (inactive). The GI50 in the assay on MDA-MB-435 is 19.1 µM (inactive); in the assay on MDA-N, 17.6 µM (inactive); in the assay with NCI-H226, 20.1 µM (inactive); in the assay on NCI-H460, 4.13 µM (inactive); with NCI-H522 it was 22.5 µM (inactive); in the assay on OVCAR-3, 17.7 µM (inactive). Also, the GI50 in the assay on OVCAR-5 is 19.8 µM (inactive); in the assay on RPMI-8226 it was 74.6 µM (inactive); with SF-295, 16.5 µM (inactive); in the assay with SK-MEL-28, 20.9 µM (inactive); in the assay with SNB-75, 14.9 µM (inactive); in the assay on UACC-257, 19.3 µM (inactive). The GI50 with UO-31 was 21.9 µM (inactive).

With `OC(c1ccoc1)c1cc2ccccc2s1` (stereo not drawn), the GI50 in the assay on HCT-116 is > 10 µM (inactive); in the assay with HCT-15, over 10 µM; in the assay on IGROV-1, > 10 µM (inactive); with K562, > 10 µM (inactive); in the assay on M14, > 10 µM (inactive); in the assay with MCF7, > 10 µM (inactive). In addition, the GI50 in the assay on MDA-MB-435, in the assay with MDA-N, in the assay on NCI-H226, with NCI-H460, in the assay on NCI-H522 and with OVCAR-3 was > 10 µM (inactive) throughout. Moreover, the GI50 in the assay on OVCAR-5, with RPMI-8226, in the assay on SF-295, in the assay with SK-MEL-28, with SNB-75 and with UACC-257 was > 10 µM (inactive) throughout. Further, the GI50 in the assay on UO-31 is > 10 µM (inactive).

With `OC1CSCCSCCCSCCSC1`, the GI50 with HCT-116 is > 100 µM (inactive); in the assay with HCT-15 it was over 100 µM; in the assay on IGROV-1, > 100 µM (inactive); with K562, > 100 µM (inactive); in the assay on M14, > 100 µM (inactive); in the assay with MCF7, > 100 µM (inactive). In addition, the GI50 with MDA-MB-435, in the assay with MDA-N, with NCI-H226, with NCI-H460, with NCI-H522 and in the assay with OVCAR-3 was > 100 µM (inactive) in each case. Also, the GI50 in the assay with OVCAR-5, in the assay on RPMI-8226, in the assay with SF-295, in the assay on SK-MEL-28, with SNB-75 and with UACC-257 was > 100 µM (inactive) each time. Moreover, the GI50 with UO-31 was > 100 µM (inactive).

For the compound `CC1(C)C[C@H]2C=C(C=O)[C@]34C[C@]3(C(=O)OC4O)[C@H]2C1` (stereo partly drawn), the GI50 is 1.14 µM (inactive) with HCT-116; 1.43 µM in the assay on HCT-15; 3.05 µM (inactive) in the assay with IGROV-1; 4.58 µM (inactive) with K562; 1.44 µM (inactive) in the assay on M14; 1.38 µM (inactive) in the assay with MCF7. Further, the GI50 with MDA-MB-435 was 2.35 µM (inactive); with MDA-N, 1.37 µM (inactive); in the assay on NCI-H226 it was 6.61 µM (inactive); in the assay on NCI-H460 it was 18.1 µM (inactive); in the assay on NCI-H522, 0.443 µM (active); with OVCAR-3 it was 2.84 µM (inactive). The GI50 is 2.37 µM (inactive) in the assay on OVCAR-5; 4.54 µM (inactive) in the assay with RPMI-8226; 1.55 µM (inactive) in the assay with SF-295; 2.92 µM (inactive) with SK-MEL-28; 1.91 µM (inactive) in the assay with SNB-75; 2.11 µM (inactive) with UACC-257. In addition, the GI50 in the assay with UO-31 is 1.83 µM (inactive).

As to `c1ccc(C(NCC2CCO2)(c2ccccc2)c2ccccc2)cc1` (stereo not drawn), the GI50 with HCT-116 was 21.5 µM (inactive); with HCT-15 it was 16.4 µM; in the assay with IGROV-1, 15.2 µM (inactive); in the assay on K562 it was 34.1 µM (inactive); in the assay on M14, 17.1 µM (inactive); in the assay with MCF7, 16.8 µM (inactive). Further, the GI50 was 21.1 µM (inactive) with MDA-MB-435; 24.3 µM (inactive) in the assay on MDA-N; 11.3 µM (inactive) in the assay on NCI-H226; 16.4 µM (inactive) with NCI-H460; 13.5 µM (inactive) in the assay with NCI-H522; 18.5 µM (inactive) in the assay with OVCAR-3. The GI50 in the assay on OVCAR-5 is 15.7 µM (inactive); with RPMI-8226, 30.5 µM (inactive); with SF-295 it was 15.1 µM (inactive); in the assay with SK-MEL-28, 28.6 µM (inactive); with SNB-75, 15.2 µM (inactive); with UACC-257, 19.4 µM (inactive). For the same compound, in the assay on UO-31, the GI50 is 12.8 µM (inactive).

`CCOC(=O)C1(Cc2ccc3ccccc3c2)CCCCC(=O)N1` (stereo not drawn): the GI50 in the assay with HCT-15 is 28.8 µM; with IGROV-1, 57 µM (inactive); in the assay on K562 it was 4.55 µM (inactive); in the assay with LXFL 529, 38 µM (inactive); with M14, 39.3 µM (inactive); with NCI-H460 it was 25.7 µM (inactive). The GI50 was 17.5 µM (inactive) with OVCAR-3; 3.78 µM (inactive) in the assay on RPMI-8226; 8.89 µM (inactive) in the assay with SF-295; 41 µM (inactive) with SK-MEL-28; 0.286 µM (active) in the assay on SNB-75; 23.9 µM (inactive) with UO-31.

The values are drawn from ChEMBL document CHEMBL1201862, “PubChem BioAssay data set” (2004).
